≈ marks a conversion by molar mass, not a printed value. Entries after “also recorded” stand apart in the source; their conditions may differ. Read-outs that look alike come from different tables or passages of the source.
Key:
urinary bladder = details: literature, background; cited from earlier work
[1] = M. Blau, U. Retzke, Zbl. Gynakol. 100 (1984); cited from earlier work
guinea pig taenia coli = assay: tissue or blood; details: Cavia porcellus
guinea pig ileum = assay: tissue or blood
[2] = tested on: guinea-pig urinary bladder muscle; assay: tissue or blood

## CCCOC(C(=O)OC1CCN(C)CC1)(c1ccccc1)c1ccccc1 [propiverine, 1-methyl-4-piperidyl α,α-diphenyl-α-(n-propoxy)acetate]
Urinary bladder
  side effects (in words): not amenable to general use because of certain side effects
  therapeutic utility for the tone of the urinary bladder (in words): has shown therapeutic utility; also recorded: insufficiently effective in some patients
[1]
  effect on blood pressure (in words): lowering of the blood pressure
Guinea pig taenia coli; read-out: ED50 (myotropic/spasmolytic activity)
  EC50: 2 µg/mL (≈ 5.44 µM)
Guinea pig taenia coli; read-out: Myotropic/spasmolytic activity, Taenia coli, Barium 200 μg/ml (EC 50)
  EC50: 12 µg/mL (≈ 32.7 µM)
Guinea pig ileum
  predominating effect, neurotropic/spasmolytic versus myotropic/spasmolytic (in words): the undesired myotropic/spasmolytic effect predominates
Guinea pig ileum; Cavia porcellus, read-out: Neurotropic/spasmolytic activity, Ileum, Carbachol 50 ng/ml
  EC50: 0.059 µg/mL (≈ 0.161 µM)
[2]
  myotropic/spasmolytic activity compared with papaverine (in words): reaches the potency of papaverine
[2]; Cavia porcellus, read-out: ED50 (myotropic/spasmolytic activity)
  EC50: 53 µg/mL (≈ 144 µM)

From patent publication US5047413A (priority 1987, dated 1991)
